Experimental data published in patent publication US12268723B2, “Peptidomimetics for the treatment of coronavirus and picorna virus infections” (priority 2019, dated 2025).

Tests used:
Type in all cases: cell-based
[1] = system: Enterovirus EV-71 (BrCr strain); assay: Anti-enterovirus activity, EV-71 virus yield reduction (qRT-PCR) in RD cells; settings: 0.1 MOI, 2 days post-treatment
Protocol: Compounds are tested for cytotoxicity using a MTS (3-(4,5-dimethylthiazol-2-yl)-5-(3-carboxymethoxyphenyl)-2-(4-sulfophenyl)-2H-tetrazolium) method and the CC50 (IC50) values (cytotoxic concentrations of drug required to reduce cell viability by 50%) are determined for each test compound in human rhabdomyosarcoma (RD) cell line. In addition, the maximum non-toxic concentrations (MNTC) are also determined for each compound. To avoid potential drug toxicity that would interfere with viral cytopathic effect (CPE), compounds are evaluated at nontoxic concentrations. The resultant inhibitory effect of each test compound is calculated as a percentage of decrease in EV-71 CPE. Briefly, a monolayer of RD cells is prepared in a 96-well plates. The cells are then infected with 1 MOI of EV-71 (BrCr strain) followed by treatment with a single non-toxic dose of each compound in triplicate. The vehicle control wells are treated with 0.1% DMSO diluted in the working media. The plate is then incubated for 48 h at which time the virus-control wells produced detectable CPE. To determine the probable CPE inhibitory effect of test compounds, an MTS assay is performed and effective compounds are chosen for further studies to identify the potency of the compounds and their concentration-dependent manner. The dose-response antiviral activity of each compound is determined by a virus yield reduction assay method. Briefly, confluent monolayers of RD cells in 96-wells microplate are infected with 0.1 MOI of EV-71 followed by treatment with compounds. Effective compounds are further quantified and confirmed with a virus-yield-reduction assay using an optimized in house qRT-PCR to determine the EV-71 RNA copy number after 2 days post-treatment from collected supernatants. qRT-PCR is performed using the EV-71 specific probe/primer mix and qScript-Tough master mix (Quantibio, USA). Quantitative PCR measurement was performed using StepOnePlus real time PCR system ([…]) according to manufacturer's protocol. The median effective concentration (EC50) and the concentration with 90% of inhibitory effect (EC90) are calculated using GraphPad PRISM for Windows, version 5 (GraphPad Software Inc., San Diego, CA, 2005) as the means±standard deviation (SD) of the mean from triplicate assay from three independent experiments.

[2] = system: human rhabdomyosarcoma (RD) cell line; assay: Cytotoxicity (MTS) in RD cells
Protocol: Compounds are tested for cytotoxicity using a MTS (3-(4,5-dimethylthiazol-2-yl)-5-(3-carboxymethoxyphenyl)-2-(4-sulfophenyl)-2H-tetrazolium) method and the CC50 (IC50) values (cytotoxic concentrations of drug required to reduce cell viability by 50%) are determined for each test compound in human rhabdomyosarcoma (RD) cell line. In addition, the maximum non-toxic concentrations (MNTC) are also determined for each compound. To avoid potential drug toxicity that would interfere with viral cytopathic effect (CPE), compounds are evaluated at nontoxic concentrations. The resultant inhibitory effect of each test compound is calculated as a percentage of decrease in EV-71 CPE. Briefly, a monolayer of RD cells is prepared in a 96-well plates. The cells are then infected with 1 MOI of EV-71 (BrCr strain) followed by treatment with a single non-toxic dose of each compound in triplicate. The vehicle control wells are treated with 0.1% DMSO diluted in the working media. […] The dose-response antiviral activity of each compound is determined by a virus yield reduction assay method. Briefly, confluent monolayers of RD cells in 96-wells microplate are infected with 0.1 MOI of EV-71 followed by treatment with compounds. […] Quantitative PCR measurement was performed using StepOnePlus real time PCR system ([…]) according to manufacturer's protocol.

[3] = Cellular toxicity assay in Vero cells; settings: African green monkey, read-out: Cytotoxicity, CC50, VERO
Protocol: (§1) The toxicity of the compounds was assessed in Vero, human PBM, CEM (human lymphoblastoid), MT-2, and HepG2 cells, as described previously (see Schinazi R. F., Sommadossi J.-P., Saalmann V., Cannon D. L., Xie M.-Y., Hart G. C., Smith G. A. & Hahn E. F. Antimicrob. Agents Chemother. 1990, 34, 1061-67). Cycloheximide was included as positive cytotoxic control, and untreated cells exposed to solvent were included as negative controls. The cytotoxicity CC50 was obtained from the concentration-response curve using the median effective method described previously (see Chou T.-C. & Talalay P. Adv. Enzyme Regul. 1984, 22, 27-55; Belen'kii M. S. & Schinazi R. F. Antiviral Res. 1994, 25, 1-11).

HCoV (OC43) = assay: In vitro assay for HCoV (OC43), virus yield reduction in Huh7 cells; settings: Betacoronavirus 1, OC43, Huh-7, 10 μM
From the text: In order to determine the potential effect of each selected compound against in vitro replication of SARS-CoV-2 in Vero cells or HCoV (OC43) in Huh7 cells, a confluent cell monolayer in a 96-wells cell culture microplate can be infected at a multiplicity of infection (MOI) of 0.1 and treated with a maximum non-toxic concentration (MNTC) of each compound. To assess the antiviral activity, a virus yield reduction assay using specific qRT-PCR for each virus can be performed.
Dose-Dependent Antiviral Assay. The antiviral effect of each compound selected through the antiviral evaluation assay can be further confirmed by virus yield reduction assay using the optimized qRT-PCR by measuring the RNA copy number for each virus in the supernatant of treated-infected cells. A positive control, such as remdesivir, can be used for each assay.
Statistical analysis. The half-maximal effective concentration (EC50) and the concentration with 90% of inhibitory effect (EC90) can be calculated using GraphPad PRISM for Windows, version 5 (GraphPad Software Inc., San Diego, CA, 2005) or the Chou and Talalay Method.
These methods were used to evaluate certain of the compounds described herein.

[4] = Cellular toxicity assay in Huh7 cells; settings: human, read-out: Cytotoxicity, CC50, Huh7
SARS-CoV-2 = assay: microbe, parasite or virus in culture; settings: Severe acute respiratory syndrome coronavirus 2; 10 μM, Vero cells; read-out: SARS-CoV-2 Inhibition at 10 μM (%)
[5] = Cellular toxicity assay in CEM cells; settings: human, CEM lymphoblastoid cells, read-out: Cytotoxicity, CC50, CEM
Protocol: as §1

Structure (SMILES) | EC50 ([1]; read-out: EC50 against Enterovirus EV-71 (BrCr strain)) [µM] | EC90 ([1]; read-out: EC90 against Enterovirus EV-71 (BrCr strain)) [µM] | CC50 [2] [µM] | CC50 [3] [µM] | inhibition at 10 µM (HCoV (OC43)) [%] | CC50 [4] [µM] | inhibition at 10 µM (SARS-CoV-2) [%] | CC50 [5] [µM]
Cc1cc(C(=O)N[C@@H](Cc2cccc3ccccc23)C(=O)N[C@@H](CC(C)C)C(=O)NC(C=O)C[C@@H]2CCCNC2=O)no1 (stereo partly shown) | 0.0085 | 0.0214 | > 100 | – | – | – | – | –
CC(C)C[C@H](NC(=O)[C@H](Cc1ccc(F)cc1)NC(=O)OCc1ccccc1)C(=O)N[C@H](C=O)C[C@@H]1CCCNC1=O [Compound 35, Benzyl ((S)-3-(4-fluorophenyl)-1-(((S)-4-methyl-1-oxo-1-(((S)-1-oxo-3-((S)-2-oxopiperidin-3-yl)propan-2-yl)amino)pentan-2-yl)amino)-1-oxopropan-2-yl)carbamate] | – | – | – | > 100 | 99.9 | 60 | 99.8 | –
CC(C)C[C@H](NC(=O)[C@H](Cc1cccc2ccccc12)NC(=O)OCc1ccccc1)C(=O)N[C@@H](C[C@@H]1CCCNC1=O)C(O)C(F)(F)F (stereo partly drawn) [Compound 38, Benzyl ((2S)-1-(((2S)-4-methyl-1-oxo-1-(((2S)-4,4,4-trifluoro-3-hydroxy-1-((S)-2-oxopiperidin-3-yl)butan-2-yl)amino)pentan-2-yl)amino)-3-(naphthalen-1-yl)-1-oxopropan-2-yl)carbamate] | – | – | – | – | 95 | – | 85.1 | 6
